17 molecules from patent US20250215029A1 (Recludix Pharma, Inc., priority 2022, published 2025) can be followed below.

The target in experiment [1] is T1, Recombinant STAT3 protein (STAT3 (G127-I722)) (Homo sapiens, UniProt P40763).
T1 construct: Recombinant STAT3 protein (STAT3 (G127-I722))
The experiment is described as follows: STAT3 Fluorescence Polarization (FP) Assay. The format is binding. The conditions noted are these: STAT3 25 nM, probe 5-FAM-GpYLPQTV-NH2 2 nM, 45-minute incubation; read-out: STAT3 (FP assay IC50). In a few lines:
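Compounds in serial dilution receive a premix of STAT3 (G127-I722, 25 nM) and fluorescent phosphotyrosine peptide 5-FAM-GpYLPQTV-NH2 (2 nM) at pH 7.4. After 45 min at room temperature, FP is measured and IC50 derived by nonlinear regression.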

Experiment [2] concerns the target T2, Recombinant STAT6 protein (STAT6 (W123-T658)) (Homo sapiens, UniProt P42226).
T2 construct: Recombinant STAT6 protein (STAT6 (W123-T658))
T2 sequence (P42226 123-658): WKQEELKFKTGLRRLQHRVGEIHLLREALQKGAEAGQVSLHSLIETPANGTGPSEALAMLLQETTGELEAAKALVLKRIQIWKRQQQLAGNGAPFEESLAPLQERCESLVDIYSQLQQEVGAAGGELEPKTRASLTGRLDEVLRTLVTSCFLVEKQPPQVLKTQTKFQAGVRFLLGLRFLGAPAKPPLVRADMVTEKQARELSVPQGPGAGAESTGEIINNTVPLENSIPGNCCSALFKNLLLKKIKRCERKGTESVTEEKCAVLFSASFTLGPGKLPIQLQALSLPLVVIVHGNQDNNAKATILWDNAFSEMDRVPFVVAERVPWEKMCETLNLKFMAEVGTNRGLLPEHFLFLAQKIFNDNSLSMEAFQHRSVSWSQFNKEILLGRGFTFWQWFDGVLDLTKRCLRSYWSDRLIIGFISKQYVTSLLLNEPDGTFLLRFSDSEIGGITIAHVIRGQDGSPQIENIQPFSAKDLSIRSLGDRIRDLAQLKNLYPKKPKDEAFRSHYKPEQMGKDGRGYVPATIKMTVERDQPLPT
The experiment is described as follows: STAT6 Fluorescence Polarization (FP) Assay. The format is binding. Conditions: STAT6 250 nM, probe 5-FAM-Ap[…]-NH2 2 nM, 45-minute incubation; read-out: STAT6 (FP assay IC50). In outline:
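Displacement of a fluorescent phosphotyrosine peptide (2 nM) from 250 nM STAT6 (W123-T658) is measured by polarization after a 45-minute room-temperature incubation. Compounds are titrated serially at 1% DMSO, and IC50 values derive from regression of mP on log concentration.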

pIC50: −log10 of the molar value.

T1 sequence (P40763 127-722): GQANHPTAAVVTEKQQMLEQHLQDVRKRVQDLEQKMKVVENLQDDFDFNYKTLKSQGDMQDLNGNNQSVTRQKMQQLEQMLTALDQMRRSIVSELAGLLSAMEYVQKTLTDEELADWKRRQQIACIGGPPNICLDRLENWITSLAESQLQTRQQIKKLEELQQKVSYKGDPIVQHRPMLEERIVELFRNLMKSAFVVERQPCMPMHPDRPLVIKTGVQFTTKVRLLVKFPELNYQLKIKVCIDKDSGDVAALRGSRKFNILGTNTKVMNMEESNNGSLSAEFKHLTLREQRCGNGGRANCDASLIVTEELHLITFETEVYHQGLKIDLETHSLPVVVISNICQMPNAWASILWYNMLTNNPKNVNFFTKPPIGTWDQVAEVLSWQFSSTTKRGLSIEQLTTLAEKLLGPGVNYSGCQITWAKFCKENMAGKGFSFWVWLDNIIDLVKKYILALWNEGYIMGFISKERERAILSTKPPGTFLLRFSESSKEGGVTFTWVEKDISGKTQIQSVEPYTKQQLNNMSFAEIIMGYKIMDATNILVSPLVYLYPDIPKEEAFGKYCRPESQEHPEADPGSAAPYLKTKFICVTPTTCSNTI

As for `O=C(N[C@H]1CCCC[C@H]2CC[C@@H](C(=O)N3CC(Cc4ccccc4)C3)N2C1=O)c1cc2cc(C(F)(F)P(=O)(O)O)ccc2s1` [Compound 36, ((2-(((3S,6S,10aS)-3-(3-benzylazetidine-1-carbonyl)-5-oxodecahydro-pyrrolo[1,2-a]azocin-6-yl)carbamoyl)benzo[b]thiophen-5-yl)difluoromethyl) phosphonic acid], the pIC50 in experiment [1] was over 7.00; in experiment [2], 5.52 to 6.52.
The corresponding values for `O=C(N[C@H]1CCCC[C@H]2CC[C@@H](C(=O)NCc3n[nH]c4ncccc34)N2C1=O)c1cc2cc(C(F)(F)P(=O)(O)O)ccc2s1` [Compound 37, ((2-(((3S,6S,10aS)-3-(((1H-pyrazolo[3,4-b]pyridin-3-yl)methyl)carbamoyl)-5-oxodecahydro-pyrrolo[1,2-a]azocin-6-yl)carbamoyyl)benzo[b]thiophen-5-yl)difluoro-methyl) phosphonic acid] are 6.00 to 7.00 and 5.52 to 6.52.
The like results for `Cn1c(C2CN(C(=O)[C@@H]3CC[C@@H]4CCCC[C@H](NC(=O)c5cc6cc(C(F)(F)P(=O)(O)O)ccc6s5)C(=O)N43)C2)nc2ccccc21` [Compound 38, (difluoro(2-(((3S,6S,10aS)-3-(3-(1-methyl-1H-benzo[d]imidazol-2-yl)azetidine-1-carbonyl)-5-oxodecahydropyrrolo [1,2-a]azocin-6-yl)carbamoyl)benzo[b]thiophen-5-yl)methyl) phosphonic acid] were, in that order, over 7.00 and 5.52 to 6.52.
Consider `O=C(N[C@H]1CCCC[C@H]2CC[C@@H](C(=O)N3CC(Oc4ccccc4)C3)N2C1=O)c1cc2cc(C(F)(F)P(=O)(O)O)ccc2s1` [Compound 39, (difluoro(2-(((3S,6S,10aS)-5-oxo-3-(3-phenoxyazetidine-1-carbonyl)decahydropyrrolo [1,2-a]azocin-6-yl)carbamoyl)benzo[b]thiophen-5-yl)methyl) phosphonic acid], for which the negative-log IC50 (pIC50) in experiment [1] is 6.00 to 7.00; in experiment [2] it was 5.52 to 6.52.
The like results for `C[C@]1(NC(=O)c2cc3cc(C(F)(F)P(=O)(O)O)ccc3s2)CCCC[C@H]2CC[C@@H](C(=O)N3CC(C(=O)N4CCOCC4)C3)N2C1=O` [Compound 40, (difluoro(2-(((3S,6S,10aS)-6-methyl-3-(3-(morpholine-4-carbonyl)azetidine-1-carbonyl)-5-oxodecahydropyrrolo [1,2-a]azocin-6-yl)carbamoyl)benzo[b]thiophen-5-yl)methyl) phosphonic acid] were, in that order, 6.00 to 7.00 and 4.52 to 5.52.
Regarding `O=C(N[C@H]1CCCC[C@H]2CC[C@@H](C(=O)N3CC4(CN(C(=O)Cc5ccccc5)C4)C3)N2C1=O)c1cc2cc(C(F)(F)P(=O)(O)O)ccc2s1` [Compound 42, (difluoro(2-(((3S,6S,10aS)-5-oxo-3-(6-(2-phenylacetyl)-2,6-diazaspiro[3.3]heptane-2-carbonyl)decahydropyrrolo [1,2-a]azocin-6-yl)carbamoyl)benzo[b]thiophen-5-yl)methyl) phosphonic acid], the pIC50 in experiment [1] was 6.00 to 7.00; in experiment [2], at least 6.52.
For `O=C(N[C@H]1CCC[C@H]2CC[C@@H](C(=O)N3CC(c4nc5ccccc5[nH]4)C3)N2C1=O)c1cc2cc(C(F)(F)P(=O)(O)O)ccc2s1` [Compound 43, ((2-(((3S,6S,9aS)-3-(3-(1H-benzo[d]imidazol-2-yl)azetidine-1-carbonyl)-5-oxooctahydro-1H-pyrrolo[1,2-a]azepin-6-yl)carbamoyl)benzo[b]thiophen-5-yl)difluoromethyl) phosphonic acid], the negative logarithm of the IC50 (pIC50) is over 7.00 in experiment [1] and 5.52 to 6.52 in experiment [2].
Turning to `COc1ccc(N(C)C(=O)[C@@H]2CC[C@@H]3CCCC[C@H](NC(=O)c4cc5cc(C(F)(F)P(=O)(O)O)ccc5s4)C(=O)N32)cn1` [Compound 44, (difluoro(2-(((3S,6S,10aS)-3-((6-methoxypyridin-3-yl)(methyl)carbamoyl)-5-oxodecahydro-pyrrolo[1,2-a]azocin-6-yl)carbamoyl)benzo[b]thiophen-5-yl)methyl) phosphonic acid], the figures for the pIC50 in experiment [1] and in experiment [2] were 5.00 to 6.00 and 5.52 to 6.52, respectively.
The like results for `O=C(N[C@H]1CCC[C@H]2CC[C@@H](C(=O)N3CC(O)(c4ccccn4)C3)N2C1=O)c1cc2cc(C(F)(F)P(=O)(O)O)ccc2s1` [Compound 45, (difluoro(2-(((3S,6S,9aS)-3-(3-hydroxy-3-(pyridin-2-yl)azetidine-1-carbonyl)-5-oxooctahydro-1H-pyrrolo[1,2-a]azepin-6-yl)carbamoyl)benzo[b]thiophen-5-yl)methyl) phosphonic acid] were, in that order, over 7.00 and 5.52 to 6.52.
The like results for `O=C(N[C@H]1CCC[C@H]2CC[C@@H](C(=O)N3CC(c4ncccn4)C3)N2C1=O)c1cc2cc(C(F)(F)P(=O)(O)O)ccc2s1` [Compound 46, (difluoro(2-(((3S,6S,9aS)-5-oxo-3-(3-(pyrimidin-2-yl)azetidine-1-carbonyl)octahydro-1H-pyrrolo[1,2-a]azepin-6-yl)carbamoyl)benzo[b]thiophen-5-yl)methyl) phosphonic acid] were, in that order, over 7.00 and 4.52 to 5.52.
The like results for `COc1cc(CCN(C)C(=O)[C@@H]2CC[C@@H]3CCCC[C@H](NC(=O)c4cc5cc(C(F)(F)P(=O)(O)O)ccc5s4)C(=O)N32)ccn1` [Compound 47, (difluoro(2-(((3S,6S,10aS)-3-((2-(2-methoxypyridin-4-yl)ethyl)(methyl)carbamoyl)-5-oxodecahydropyrrolo [1,2-a]azocin-6-yl)carbamoyl)benzo[b]thiophen-5-yl)methyl) phosphonic acid] were, in that order, 5.00 to 6.00 and 5.52 to 6.52.
For the molecule `O=C(N[C@H]1CCCC[C@H]2CC[C@@H](C(=O)N3CCc4c(cc[nH]c4=O)C3)N2C1=O)c1cc2cc(C(F)(F)P(=O)(O)O)ccc2s1` [Compound 48, (difluoro(2-(((3S,6S,10aS)-5-oxo-3-(5-oxo-1,2,3,4,5,6-hexahydro-2,6-naphthyridine-2-carbonyl)decahydropyrrolo [1,2-a]azocin-6-yl)carbamoyl)benzo[b]thiophen-5-yl)methyl) phosphonic acid], the negative logarithm of the IC50 (pIC50) in experiment [1] is 5.00 to 6.00; in experiment [2], 4.52 to 5.52.
Consider `O=C(N[C@H]1CCCC[C@H]2CC[C@@H](C(=O)NCc3cc[nH]c(=O)c3)N2C1=O)c1cc2cc(C(F)(F)P(=O)(O)O)ccc2s1` [Compound 49, (difluoro(2-(((3S,6S,10aS)-5-oxo-3-(((2-oxo-1,2-dihydropyridin-4-yl)methyl)carbamoyl)deca-hydropyrrolo[1,2-a]azocin-6-yl)carbamoyl)benzo[b]thiophen-5-yl)methyl) phosphonic acid], for which the pIC50 in experiment [1] was 6.00 to 7.00; in experiment [2], 4.52 to 5.52.
The corresponding values for `N#CCC1CN(C(=O)[C@@H]2CC[C@@H]3CCC[C@H](NC(=O)c4cc5cc(C(F)(F)P(=O)(O)O)ccc5s4)C(=O)N32)C1` [Compound 50, ((2-(((3S,6S,9aS)-3-(3-(cyanomethyl)azetidine-1-carbonyl)-5-oxooctahydro-1H-pyrrolo[1,2-a]azepin-6-yl)carbamoyl)benzo[b]thiophen-5-yl)difluoromethyl) phosphonic acid] are 6.00 to 7.00 and 5.52 to 6.52.
The corresponding values for `N#Cc1cccc(C2CN(C(=O)[C@@H]3CC[C@@H]4CCC[C@H](NC(=O)c5cc6cc(C(F)(F)P(=O)(O)O)ccc6s5)C(=O)N43)C2)c1` [Compound 51, ((2-(((3S,6S,9aS)-3-(3-(3-cyanophenyl)azetidine-1-carbonyl)-5-oxooctahydro-1H-pyrrolo[1,2-a]azepin-6-yl)carbamoyl)benzo[b]thiophen-5-yl)difluoromethyl) phosphonic acid] are over 7.00 and 5.52 to 6.52.
With `N#Cc1[nH]nc2ccc(NC(=O)[C@@H]3CC[C@@H]4CCCC[C@H](NC(=O)c5cc6cc(C(F)(F)P(=O)(O)O)ccc6s5)C(=O)N43)cc12` [Compound 52, ((2-(((3S,6S,10aS)-3-((3-cyano-2H-indazol-5-yl)carbamoyl)-5-oxodecahydropyrrolo [1,2-a]azocin-6-yl)carbamoyl)benzo[b]thiophen-5-yl)difluoromethyl) phosphonic acid], the negative-log IC50 (pIC50) is 5.00 to 6.00 in experiment [1] and 5.52 to 6.52 in experiment [2].
With `O=C(N[C@H]1CCCC[C@H]2CC[C@@H](C(=O)N3CC(F)(c4ccccc4)C3)N2C1=O)c1cc2cc(C(F)(F)P(=O)(O)O)ccc2s1` [Compound 53, (difluoro(2-(((3S,6S,10aS)-3-(3-fluoro-3-phenylazetidine-1-carbonyl)-5-oxodecahydropyrrolo [1,2-a]azocin-6-yl)carbamoyl)benzo[b]thiophen-5-yl)methyl) phosphonic acid], the pIC50 in experiment [1] was over 7.00; in experiment [2], 5.52 to 6.52.
